In patent US9505762B2, “Purine derivatives as CB2 receptor agonists” (Hoffmann-La Roche Inc., priority 2013, dated 2016):

Columns and labels:
human CB1 receptors = human CB1 receptors (Homo sapiens (Human), UniProt P21554); experiment: functional cAMP assay, CB1; format: cell-based; conditions: CHO cells expressing human CB1
Description: (§1) The growth medium was exchanged with Krebs Ringer Bicarbonate buffer with 1 mM IBMX and incubated at 30° C. for 30 min. Compounds were added to a final assay volume of 100 μl and incubated for 30 min at 30° C. Using the cAMP-Nano-TRF detection kit the assay (Roche Diagnostics) was stopped by the addition of 50 μl lysis reagent (Tris, NaCl, 1.5% Triton X100, 2.5% NP40, 10% NaN3) and 50 μl detection solutions (20 μM mAb Alexa700-cAMP 1:1, and 48 μM Ruthenium-2-AHA-cAMP) and shaken for 2 h at room temperature. The time-resolved energy transfer is measured by a TRF reader (Evotec Technologies GmbH), equipped with a ND:YAG laser as excitation source. The plate is measured twice with the excitation at 355 nm and at the emission with a delay of 100 ns and a gate of 100 ns, total exposure time 10 s at 730 (bandwidth 30 nm) or 645 nm (bandwidth 75 nm), respectively.
(§2) EC50 values were determined using Activity Base analysis (ID Business Solution, Limited).

human CB2 receptors = human CB2 receptors (Homo sapiens (Human), UniProt P34972); experiment: functional cAMP assay, CB2; format: cell-based; conditions: CHO cells expressing human CB2
Description: as §1, §2

Chain of human CB1 receptors (P21554 whole entry): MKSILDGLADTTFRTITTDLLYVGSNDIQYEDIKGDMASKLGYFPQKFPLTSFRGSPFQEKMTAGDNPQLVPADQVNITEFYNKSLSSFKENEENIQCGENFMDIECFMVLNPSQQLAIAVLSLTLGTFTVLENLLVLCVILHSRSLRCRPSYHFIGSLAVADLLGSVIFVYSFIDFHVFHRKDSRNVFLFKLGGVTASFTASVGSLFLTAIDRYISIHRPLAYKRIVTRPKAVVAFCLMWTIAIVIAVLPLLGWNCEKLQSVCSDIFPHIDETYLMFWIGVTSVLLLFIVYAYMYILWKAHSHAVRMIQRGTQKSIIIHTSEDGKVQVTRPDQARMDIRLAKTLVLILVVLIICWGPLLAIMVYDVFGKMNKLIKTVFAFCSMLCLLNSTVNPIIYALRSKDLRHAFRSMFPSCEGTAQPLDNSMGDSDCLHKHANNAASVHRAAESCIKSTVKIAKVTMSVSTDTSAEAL
Chain of human CB2 receptors (P34972 whole entry): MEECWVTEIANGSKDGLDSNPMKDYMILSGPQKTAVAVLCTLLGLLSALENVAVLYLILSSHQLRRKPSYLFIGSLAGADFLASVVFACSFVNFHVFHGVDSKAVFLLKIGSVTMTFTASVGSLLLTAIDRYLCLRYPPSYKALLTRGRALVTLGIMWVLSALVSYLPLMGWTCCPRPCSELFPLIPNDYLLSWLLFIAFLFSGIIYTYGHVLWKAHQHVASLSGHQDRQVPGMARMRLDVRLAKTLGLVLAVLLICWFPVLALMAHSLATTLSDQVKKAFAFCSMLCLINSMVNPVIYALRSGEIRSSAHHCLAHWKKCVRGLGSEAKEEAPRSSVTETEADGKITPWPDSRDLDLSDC

| Structure (SMILES) | EC50 (human CB1 receptors) [µM] | EC50 (human CB2 receptors) [µM] |
| --- | --- | --- |
| CC(C)(C)c1nc(N2CCC(F)(F)C2)c2ncn(CC3CCCCC3)c2n1 [Example 8, 2-tert-butyl-9-(cyclohexylmethyl)-6-(3,3-difluoropyrrolidin-1-yl)purine] | > 10 | 0.0753 |
| CCn1cnc2c(N3CCC(F)(F)C3)nc(C(C)(C)C)nc21 [Example 9, 2-tert-butyl-6-(3,3-difluoropyrrolidin-1-yl)-9-ethylpurine] | > 10 | 0.0488 |
| Cc1nnc(Cn2cnc3c(N4CCC(F)(F)C4)nc(C(C)(C)C)nc32)o1 [Example 11, 2-[[2-tert-butyl-6-(3,3-difluoropyrrolidin-1-yl)purin-9-yl]methyl]-5-methyl-1,3,4-oxadiazole] | > 10 | 0.0617 |
| CC(C)(C)c1nc(N2CCC(F)(F)C2)c2ncn(C3CCOC3)c2n1 (stereo not drawn) [Example 12, 2-tert-butyl-6-(3,3-difluoropyrrolidin-1-yl)-9-(oxolan-3-yl)purine] | > 10 | 0.0031 |
| Cn1nnnc1Cn1cnc2c(N3CCC(F)(F)C3)nc(C(C)(C)C)nc21 [Example 14, 2-tert-butyl-6-(3,3-difluoropyrrolidin-1-yl)-9-[(1-methyltetrazol-5-yl)methyl]purine] | > 10 | 0.023 |
| Cc1nonc1Cn1cnc2c(N3CCC(F)(F)C3)nc(C(C)(C)C)nc21 [Example 16, 3-[[2-tert-butyl-6-(3,3-difluoropyrrolidin-1-yl)purin-9-yl]methyl]-4-methyl-1,2,5-oxadiazole] | > 10 | 0.006 |
| CC(C)(C)c1nc(N2CCC(F)(F)C2)c2ncn(CC(=O)c3ccccc3Cl)c2n1 [Example 17, 2-[2-tert-butyl-6-(3,3-difluoropyrrolidin-1-yl)purin-9-yl]-1-(2-chlorophenyl)ethanone] | > 10 | 0.0035 |
| CC(C)(C)c1nc(N2CCC(F)(F)C2)c2ncn(Cc3ccccc3S(C)(=O)=O)c2n1 [Example 18, 2-tert-butyl-6-(3,3-difluoropyrrolidin-1-yl)-9-[(2-methylsulfonylphenyl)methyl]purine] | > 10 | 0.0033 |
| COc1ccc(Cn2cnc3c(N4CCC(F)(F)C4)nc(C(C)(C)C)nc32)cc1 [Example 20, 2-tert-butyl-6-(3,3-difluoropyrrolidin-1-yl)-9-[(4-methoxyphenyl)methyl]purine] | > 10 | 0.0125 |
| CC(C)(C)c1nc(N2CCC(F)(F)C2)c2ncn(Cc3ncccc3Cl)c2n1 [Example 21, 2-tert-butyl-9-[(3-chloropyridin-2-yl)methyl]-6-(3,3-difluoropyrrolidin-1-yl)purine] | > 10 | 0.0022 |
| CC(C)(C)c1nc(N2CCC(O)C2)c2ncn(Cc3ccccc3Cl)c2n1 (stereo not drawn) [Example 22, 1-[2-tert-butyl-9-[(2-chlorophenyl)methyl]purin-6-yl]pyrrolidin-3-ol] | > 10 | 0.0057 |
| CC(C)(C)c1nc(N2CCC(F)(F)C2)c2ncn(CCc3cccnc3)c2n1 [Example 23, 2-tert-butyl-6-(3,3-difluoropyrrolidin-1-yl)-9-(2-pyridin-3-ylethyl)purine] | > 10 | 0.0044 |
| CC(C)(C)c1nc(N2CCC(F)(F)C2)c2ncn(CC(=O)c3ccccn3)c2n1 [Example 24, 2-[2-tert-butyl-6-(3,3-difluoropyrrolidin-1-yl)purin-9-yl]-1-pyridin-2-ylethanone] | > 10 | 0.0692 |
| CC(C)(C)c1nc(N2CCC(O)C2)c2ncn(Cc3cccc(Cl)c3)c2n1 (stereo not drawn) [Example 25, 1-[2-tert-butyl-9-[(3-chlorophenyl)methyl]purin-6-yl]pyrrolidin-3-ol] | > 10 | 0.0588 |
| CC(C)(C)c1nc(N2CCC(F)(F)C2)c2ncn(C3CS(=O)(=O)C3)c2n1 [Example 27, 3-[2-tert-butyl-6-(3,3-difluoropyrrolidin-1-yl)purin-9-yl]thietane 1,1-dioxide] | > 10 | 0.0141 |
| CC(C)(C)c1nc(N2CCC(O)C2)c2ncn(Cc3ccccc3C(F)(F)F)c2n1 (stereo not drawn) [Example 28, 1-[2-tert-butyl-9-[[2-(trifluoromethyl)phenyl]methyl]purin-6-yl]pyrrolidin-3-ol] | > 10 | 0.001 |
| Cc1noc(Cn2cnc3c(N4CCC(O)C4)nc(C(C)(C)C)nc32)n1 (stereo not drawn) [Example 29, 1-[2-tert-butyl-9-[(3-methyl-1,2,4-oxadiazol-5-yl)methyl]purin-6-yl]pyrrolidin-3-ol] | > 10 | 0.427 |
| Cn1nnnc1Cn1cnc2c(N3CCC(O)C3)nc(C(C)(C)C)nc21 (stereo not drawn) [Example 30, 1-[2-tert-butyl-9-[(1-methyltetrazol-5-yl)methyl]purin-6-yl]pyrrolidin-3-ol] | > 10 | 0.301 |

| Structure (SMILES) | EC50 (human CB1 receptors) [µM] | EC50 (human CB2 receptors) [µM] |
| --- | --- | --- |
| COc1ccc(Cn2cnc3c(N4CCC(O)C4)nc(C(C)(C)C)nc32)cc1 (stereo not drawn) [Example 31, 1-[2-tert-butyl-9-[(4-methoxyphenyl)methyl]purin-6-yl]pyrrolidin-3-ol] | > 10 | 0.0214 |
| CC(C)(C)c1nc(N2CCC(O)C2)c2ncn(Cc3ncccc3Cl)c2n1 (stereo not drawn) [Example 32, 1-[2-tert-butyl-9-[(3-chloropyridin-2-yl)methyl]purin-6-yl]pyrrolidin-3-ol] | > 10 | 0.0034 |
| CC(C)(C)c1nc(N2CCC(O)C2)c2ncn(Cc3cccnc3Cl)c2n1 (stereo not drawn) [Example 33, 1-[2-tert-butyl-9-[(2-chloropyridin-3-yl)methyl]purin-6-yl]pyrrolidin-3-ol] | > 10 | 0.0034 |
| CC(C)(C)c1nc(N2CCC(O)C2)c2ncn(Cc3ccccc3S(C)(=O)=O)c2n1 (stereo not drawn) [Example 34, 1-[2-tert-butyl-9-[(2-methylsulfonylphenyl)methyl]purin-6-yl]pyrrolidin-3-ol] | > 10 | 0.009 |
| CCn1cnc2c(N3CCC(O)C3)nc(C(C)(C)C)nc21 (stereo not drawn) [Example 35, 1-(2-tert-butyl-9-ethylpurin-6-yl)pyrrolidin-3-ol] | > 10 | 0.432 |
| COCCn1cnc2c(N3CCC(O)C3)nc(C(C)(C)C)nc21 (stereo not drawn) [Example 37, 1-[2-tert-butyl-9-(2-methoxyethyl)purin-6-yl]pyrrolidin-3-ol] | > 10 | 0.274 |
| CC(C)(C)c1nc(N2CCC(O)C2)c2ncn(CCc3ccccc3)c2n1 (stereo not drawn) [Example 38, 1-[2-tert-butyl-9-(2-phenylethyl)purin-6-yl]pyrrolidin-3-ol] | > 10 | 0.0203 |
| Cc1ccc(Cn2cnc3c(N4CCC(O)C4)nc(C(C)(C)C)nc32)cc1 (stereo not drawn) [Example 39, 1-[2-tert-butyl-9-[(4-methylphenyl)methyl]purin-6-yl]pyrrolidin-3-ol] | > 10 | 0.0169 |
| CC(C)(C)c1nc(N2CCC(O)C2)c2ncn(CC3CCCCC3)c2n1 (stereo not drawn) [Example 40, 1-[2-tert-butyl-9-(cyclohexylmethyl)purin-6-yl]pyrrolidin-3-ol] | > 10 | 0.0712 |
| CC(C)(C)c1nc(N2CCC(O)C2)c2ncn(Cc3ccc(F)cc3Cl)c2n1 (stereo not drawn) [Example 42, 1-[2-tert-butyl-9-[(2-chloro-4-fluorophenyl)methyl]purin-6-yl]pyrrolidin-3-ol] | > 10 | 0.0037 |
| Cc1nonc1Cn1cnc2c(N3CCC(O)C3)nc(C(C)(C)C)nc21 (stereo not drawn) [Example 43, 1-[2-tert-butyl-9-[(4-methyl-1,2,5-oxadiazol-3-yl)methyl]purin-6-yl]pyrrolidin-3-ol] | > 10 | 0.0166 |
| CC(C)(C)c1nc(N2CCC(O)C2)c2ncn(Cc3c[nH]nc3C(F)(F)F)c2n1 (stereo not drawn) [Example 44, 1-[2-tert-butyl-9-[[3-(trifluoromethyl)-1H-pyrazol-4-yl]methyl]purin-6-yl]pyrrolidin-3-ol] | > 10 | 0.0148 |
| CC(C)(C)c1nc(N2CCC(O)C2)c2ncn(CCC(F)(F)F)c2n1 (stereo not drawn) [Example 45, 1-[2-tert-butyl-9-(3,3,3-trifluoropropyl)purin-6-yl]pyrrolidin-3-ol] | > 10 | 0.0496 |
| CC(C)(C)c1nc(N2CCC(O)C2)c2ncn(C3CCOC3)c2n1 (stereo not drawn) [Example 46, 1-[2-tert-butyl-9-(oxolan-3-yl)purin-6-yl]pyrrolidin-3-ol] | > 10 | 0.139 |
| CC(C)(C)c1nc(N2CCC(O)C2)c2ncn(CC(=O)c3ccccc3Cl)c2n1 (stereo not drawn) [Example 47, 2-[2-tert-butyl-6-(3-hydroxypyrrolidin-1-yl)purin-9-yl]-1-(2-chlorophenyl)ethanone] | > 10 | 0.102 |
| CC(=O)N[C@H]1CCN(c2nc(C(C)(C)C)nc3c2ncn3Cc2cccc(Cl)c2)C1 [Example 49, N—[(S)-1-[2-tert-butyl-9-[(3-chlorophenyl)methyl]purin-6-yl]pyrrolidin-3-yl]acetamide] | > 10 | 0.311 |
| CC(=O)N[C@H]1CCN(c2nc(C(C)(C)C)nc3c2ncn3Cc2ccc(Cl)cc2)C1 [Example 50, N—[(S)-1-[2-tert-butyl-9-[(4-chlorophenyl)methyl]purin-6-yl]pyrrolidin-3-yl]acetamide] | > 10 | 0.534 |
| CC(=O)N[C@H]1CCN(c2nc(C(C)(C)C)nc3c2ncn3Cc2ccccc2C(F)(F)F)C1 [Example 51, N—[(S)-1-[2-tert-butyl-9-[[2-(trifluoromethyl)phenyl]methyl]purin-6-yl]pyrrolidin-3-yl]acetamide] | > 10 | 0.0647 |
